This assay addresses T1, Human Polymorphonuclear Leukocyte Elastase (Homo sapiens, UniProt P08246).
T1 construct: Crude extract of human polymorphonuclear leukocytes (PMN) containing elastase activity; endogenous in cells; host or cells: human polymorphonuclear leukocytes (PMN), crude extract
T1 sequence (P08246 30-247 limits assumed): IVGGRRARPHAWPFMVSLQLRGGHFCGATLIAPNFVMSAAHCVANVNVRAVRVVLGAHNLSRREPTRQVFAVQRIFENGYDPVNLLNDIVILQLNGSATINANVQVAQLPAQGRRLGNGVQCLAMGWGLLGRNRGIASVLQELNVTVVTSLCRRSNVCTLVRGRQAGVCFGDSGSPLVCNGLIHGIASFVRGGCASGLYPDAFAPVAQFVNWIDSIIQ
Nature of the assay: Inhibition of human polymorphonuclear leukocyte elastase via hydrolysis of Boc-AAPAN. The conditions noted are these: effective dosage for 50% inhibition of the enzyme activity 2 minutes after zero time; crude PMN extract, 0.2 mM Boc-AAPAN, pH 7.5; read-out: ED50 (the source's name) (converted). In kind it is biochemical. The protocol:
Enzyme Assays for the Inhibition of Human Polymorphonuclear Leukocyte Elastase Via Hydrolysis of N-t-Boc-alanyl-alanyl-prolylalanine-p-nitroanilide Reagents
0.05 M TES (N-tris[hydroxymethyl]methyl-2-amino-ethanesulfonic acid) Buffer, pH 7.5.
0.2 mM N-t-Boc-alanyl-alanyl-prolyl-alanine-p-nitroanilide (Boc-AAPAN).
To prepare substrate, the solid (m.w. 550) was first dissolved in 10.0 ml DMSO. Buffer at pH 7.5 was then added to a final volume of 100 ml.
Crude extract of human polymorphonuclear leukocytes (PMN) containing elastase activity.
Inhibitors (cephalosporin sulfone esters) to be tested dissolved in DMSO just before use.
To 1.0 ml of 0.2 mM Boc-AAPAN in a cuvette, 0.01-0.1 ml of DMSO with or without inhibitor was added. After mixing, a measurement was taken at 410 mμ to detect any spontaneous hydrolysis due to presence of test compound. 0.05 Milliliters of PMN extract was then added and the ΔOD/min at 410 mμ was measured and recorded. Beckman model 35 spectrophotometer was used.
Results were reported as ED50, i.e., effective dosage in micrograms per milliliter (μg/ml) for 50% inhibition of the enzyme activity 2 minutes after zero time.
The elastase activity in the crude PMN extract may vary from one preparation to another. A control of each new batch is run, and the volume added in the assay procedure is adjusted according to activity.
`CC1=C(C(=O)OCc2ccccc2)N2C(=O)C(NC(=O)c3ccccc3)C2OC1` (stereo not shown) [C6 H5 CONH]: the IC50 is 51 µM.

As for `COC(=O)C1=C(CSc2nnnn2C)COC2N1C(=O)C2(NC(=O)C(C(=O)OC)c1ccc(O)cc1)OC` (stereo not shown), the IC50 is not below 36.5 µM. For `COC1(NC(=O)C(C(=O)OCc2ccccc2)c2ccc(O)cc2)C(=O)N2C(C(=O)OCc3ccccc3)=C(C)COC21` (stereo not shown), the IC50 was 29 µM. The same measure for `CC1=COC2C(NC(=O)c3ccccc3)C(=O)N2C1C(=O)OCc1ccccc1` (stereo not shown): 12.7 µM.
